Test results from patent US9023849B2, “Substituted fused imidazoles and pyrazoles and use thereof” (Bayer Intellectual Property GmbH, priority 2012, dated 2015).

Tests used:
human PDE 5 = human PDE 5 (Homo sapiens (Human), UniProt O76074); experiment: Inhibition of human phosphodiesterase 5 (PDE 5), SPA assay; format: biochemical; settings: PDE 5 preparation from human platelets, [8-3H]cGMP substrate
Method: B-6. Inhibition of Human Phosphodiesterase 5 (PDE 5)
PDE 5 preparations are obtained from human platelets by disruption (Microfluidizer®, 800 bar, 3 passes), followed by centrifugation (75 000 g, 60 min, 4° C.) and ion exchange chromatography of the supernatant on a Mono Q 10/10 column (linear sodium chloride gradient, elution with a 0.2-0.3M solution of sodium chloride in buffer (20 mM Hepes pH 7.2, 2 mM magnesium chloride). Fractions having PDE 5 activity are combined (PDE 5 preparation) and stored at −80° C.
To determine their in vitro action on human PDE 5, the test substances are dissolved in 100% DMSO and serially diluted. Typically, dilution series (1:3) from 200 μM to 0.091 μM are prepared (resulting final concentrations in the test: 4 μM to 0.0018 μM). In each case 2 μl of the diluted substance solutions are placed into the wells of microtitre plates (Isoplate-96/200 W; Perkin Elmer). Subsequently, 50 μl of a dilution of the above-described PDE 5 preparation are added. The dilution of the PDE 5 preparation is selected such that, during the later incubation, less than 70% of the substrate is converted (typical dilution: 1:100; dilution buffer: 50 mM tris/hydrochloric acid pH 7.5, 8.3 mM magnesium chloride, 1.7 mM EDTA, 0.2% BSA). The substrate, [8-^3H]cyclic guanosine-3′,5′-monophosphate (1 μCi/μl; Perkin Elmer) is diluted 1:2000 with assay buffer (50 mM tris/hydrochloric acid pH 7.5, 8.3 mM magnesium chloride, 1.7 mM EDTA) to a concentration of 0.0005 μCi/μl. By addition of 50 μl (0.025 μCi) of the diluted substrate, the enzyme reaction is finally started. The test mixtures are incubated at room temperature for 60 min and the reaction is stopped by adding 25 μl of a suspension of 18 mg/ml yttrium scintillation proximity beads in water (phosphodiesterase beads for SPA assays, RPNQ 0150, Perkin Elmer). The microtitre plates are sealed with a film and left to stand at room temperature for 60 min Subsequently, the plates are analysed for 30 s per well in a Microbeta scintillation counter (Perkin Elmer). IC50 values are determined using the graphic plot of the substance concentration against percentage PDE 5 inhibition.

rabbit aorta rings = experiment: Vasorelaxant effect in vitro (rabbit aorta rings precontracted with phenylephrine); settings: Oryctolagus cuniculus, phenylephrine contraction, read-out: IC50 (concentration needed to reduce the magnitude of the phenylephrine contraction by 50%)
Method: B-1. Vasorelaxant Effect In Vitro
Rabbits are stunned by a blow to the neck and exsanguinated. The aorta is removed, freed from adhering tissue and divided into rings of width 1.5 mm, which are placed individually under prestress into 5 ml organ baths with carbogen-sparged Krebs-Henseleit solution at 37° C. having the following composition (each mM): sodium chloride: 119; potassium chloride: 4.8; calcium chloride dihydrate: 1; magnesium sulphate heptahydrate: 1.4; potassium dihydrogenphosphate: 1.2; sodium hydrogencarbonate: 25; glucose: 10. The contractile force is determined with Statham UC2 cells, amplified and digitalized using A/D transducers (DAS-1802 HC, Keithley Instruments Munich), and recorded in parallel on linear recorders.
To obtain a contraction, phenylephrine is added to the bath cumulatively in increasing concentration. After several control cycles, the substance to be studied is added in increasing dosage each time in every further run, and the magnitude of the contraction is compared with the magnitude of the contraction attained in the last preceding run. This is used to calculate the concentration needed to reduce the magnitude of the control value by 50% (IC50 value). The standard administration volume is 5 μl; the DMSO content in the bath solution corresponds to 0.1%.

[1] = system: recombinant guanylate cyclase reporter cell line; experiment: Effect on a recombinant guanylate cyclase reporter cell line; format: cell-based; settings: read-out: MEC (minimal effective concentration)
Method: B-2. Effect on a Recombinant Guanylate Cyclase Reporter Cell Line
The cellular action of the inventive compounds is determined on a recombinant guanylate cyclase reporter cell line as described in F. Wunder et al., Anal. Biochem. 339, 104-112 (2005).

CC1(C)C(=O)Nc2nc(-c3nn(Cc4ccccc4F)c4ncncc34)nnc21 [Example 19, 3-[1-(2-Fluorobenzyl)-1H-pyrazolo[3,4-d]pyrimidin-3-yl]-7,7-dimethyl-5,7-dihydro-6H-pyrrolo[2,3-e][1,2,4]triazin-6-one]
IC50 (human PDE 5): 0.37 µM | IC50 (rabbit aorta rings): 0.124 µM | minimal effective concentration [1]: 0.1 µM
